Earlier results, collected in patent US20230117236A1 (priority 2021, published 2023).

System: SARS-CoV-2
Settings: treatment with 24 ppm of chlorine dioxide; within 10 seconds

Question: For [O][Cl+][O-] [chlorine dioxide], which SARS-CoV-2 inactivated is on record?
Answer: more than 99.99%
